Results on three sequences are retold here after paper PMC12108757, “Discovery and Characterisation of Novel Poly-Histidine-Poly-Glycine Peptides as Matrix Metalloproteinase Inhibitors” (Biomolecules, 2025).

One data set relates to human MMP-1. Kind of data set: MMP-1 proteinase inhibition assay (time-dependent β-casein degradation, SDS-PAGE). Format: biochemical. The settings on record: for catalytic suppression of MMP-1: proteinase inhibition assay, summary in discussion; for inhibition of MMP-1 activity in hydrolysing β-casein: 0–24 h, MMP-1 pre-incubated with peptide (1:25 molar ratio), sodium phosphate buffer pH 6.5, 37 °C, 12% SDS-PAGE, Coomassie. As to the method: Proteolytic activity was assessed using β-casein (0.08 mM) as a substrate in a time-course assay (0–24 h). Enzymatic reactions were initiated by pre-incubating human MMP-1 with synthetic pHpG peptides (1:25 molar ratio) in a sodium phosphate buffer (pH 6.5) at 37 °C for 30 min. The recombinant human MMP-1 protein (rhMMP-1; ≥95% purity), obtained from MedChemExpress (Monmouth Junction, NJ, USA), was expressed in HEK293 cells as an unglycosylated form with a determined molecular weight of 49–61 kDa. The latent proenzyme requires activation via incubation with 1 mM aminophenylmercuric acetate at 37 °C for 2 h to generate the catalytically active form. Reactions were quenched with 5 mM EDTA at designated intervals, followed by electrophoretic separation on 12% SDS-PAGE and Coomassie staining. The negative control was β-casein in the absence of enzymatic catalysis, while water served as a system blank to monitor background interference.

Data set [1] in a line: Circular dichroism (CD) analysis. Format: physicochemical. The settings on record: 0.2 mM, 20 °C, CDNN software. As to the method:
The synthetic pHpGs (0.2 mM) were analysed by CD spectroscopy to identify the secondary microstructure, respectively. Settings: scanning range of 180–260 nm, speed of 50 nm·min^−1, bandwidth of 1 nm, and a response time of 0.5 s. Secondary structure proportions (α-helices, β-sheets, β-turns, and random coils) were analysed via CDNN v2.1 software (Applied Photophysics Ltd., Leatherhead, UK).

Data set [2] can be described thus: UV-Vis spectroscopy of pHpGs and zinc–pHpG complexes. It is filed as physicochemical. To be noted: 0.1 mM, 200–300 nm, room temperature; for UV–visible wavelength, zinc–pHpG complex: Zn^2+ complex; for UV–visible wavelength, peptide before zinc binding: peptide alone. On the procedure: Ultraviolet–visible (UV–Vis) spectrum of pHpGs and zinc–pHpG complexes (0.1 mM) were recorded using a Shimadzu UV-2450 spectrophotometer (Shimadzu Corporation, Kyoto, Japan) in the wavelength range of 200–300 nm at room temperature.

Data set [3] concerns HUVECs. Kind of data set: Scratch wound healing assay. To be noted: hVEGF165 25 ng/mL stimulated, serum-free, 12 h, 37 °C; across all groups 3.125–25 μM. It is filed as cell-based, human. As to the method:
Human umbilical vein endothelial cells (HUVECs) were procured from the Shanghai Institute of Biochemistry and Cell Biology (Chinese Academy of Sciences, China). For the scratch wound healing assay, HUVECs were seeded in 24-well plates at a density of 1.2 × 10⁵ cells/well and cultured to form confluent monolayers. A linear wound was created by scraping with a sterile pipette tip. Serum-free Dulbecco’s modified Eagle medium containing 25 ng/mL of human vascular endothelial growth factor 165 (hVEGF165) was supplied, followed by the addition of either the pHpG-H7 peptide (3.125 μM, 6.25 μM, 12.5 μM, 25 μM) or water as a control. Cells were incubated for 12 h (37 °C, 5% CO2), and images were captured at 0 h (initial wound area) and 12 h. Wound healing was quantified using ImageJ 1.53t software, with a migration rate calculated as: Mobility (%) = (initial wound area–12 h residual area)/initial wound area × 100%.

The test system of data set [4] is HUVECs. The experiment in a line: Tube formation assay (Matrigel). It is filed as cell-based, human. The settings on record: hVEGF165-stimulated, 1% FBS, 8 h, 37 °C, 3.125–25 μM. On the procedure: Matrigel™ Basement Membrane Matrix (BD Bioscience, Franklin Lakes, NJ, USA) was added to a 96-well plate to a total volume of 60 μL per well and polymerised at 37 °C with 5% CO2 for 30 min to form a gel layer. HUVECs (2 × 10^4 cells/well) in the medium with 1% FBS were seeded. Different concentrations of pHpG-H7 peptide (3.125 μM, 6.25 μM, 12.5 μM, 25 μM) were added to each well and incubated for 8 h (37 °C, 5% CO2). Results were detected by phase-contrast microscope (Olympus, Tokyo, Japan) and photographed. At least three representative fields from each well were selected to count the number of branching points.

In data set [5] the test system is HUVECs. Kind of data set: Trans-well migration assay. Format: cell-based, human. To be noted: 10% FBS, hVEGF165 25 ng/mL, 24 h, 37 °C; 3.125–25 μM. As to the method:
HUVECs (2 × 10^5 cells) were seeded in the upper chamber of a modified Boyden chamber system (BD Sciences, Milpitas, CA, USA). The lower chamber contained medium with 10% FBS, hVEGF165 (25 ng/mL), pHpG-H7 peptide (3.125 μM, 6.25 μM, 12.5 μM, 25 μM), or water. After 24 h incubation (37 °C, 5% CO2), migrated cells on the lower membrane surface were fixed, stained with Crystal Violet, and imaged. Cell migration was quantified using ImageJ software.

The test system of data set [6] is venom-induced haemorrhage. To be noted: ref [10]; cited from earlier work. The source says: (§1) In the preceding investigation, we reported the presence of snake venom metalloproteinase in A. squamigera’s venom, which belongs to the Pep_M12B_propeptide family. […] This hypothesis is strongly supported by findings ...
For a further data set, the system named is SVMP. The settings on record: ref [10]; cited from earlier work.
Text: as §1

The test system of the next data set is metalloproteinase. The settings on record: ref [10]; cited from earlier work. As to the method:
Time-dependent β-casein degradation mediated by MMP-1 was analysed. In the absence of pHpG peptides, β-casein was progressively degraded and fully hydrolysed within 24 h (Figure 4A).

Consider EDDHHHHHGVGGGGGGGGGG [pHpG-H5], for which, in the data set on human MMP-1, the “catalytic suppression of MMP-1” value is recorded as “potent catalytic suppression”. Besides, the “inhibition of MMP-1 activity in hydrolysing β-casein” value (“inhibition of MMP-1 activity” below) in the data set on human MMP-1 (β-casein 0.08 mM, 30 min) is listed as “significantly inhibited”. In data set [1], the “Unorderd (random coil)” value stood at 29.2%, the α-Helix is 12.1%, the β-Strand is 40.6% and the β-Turn amounted to 21.6%. In data set [2], the “UV–visible wavelength, zinc–pHpG complex” value is recorded as 216 nm and the “UV–visible wavelength, peptide before zinc binding” value is 214 nm.

Turning to EDDHHHHHHHGVGGGGGGGGGG [pHpG-H7], the “relative inhibitory effect on MMP-1 among the pHpG peptides” value in the data set with human MMP-1 (comparison of pHpG-H5, pHpG-H7, pHpG-H9, β-casein, SDS-PAGE) is recorded as “most pronounced inhibitory effect”. Also, the “catalytic suppression of MMP-1” value in the data set with human MMP-1 was “potent catalytic suppression”. The “inhibition of MMP-1 activity” value in the data set on human MMP-1 (β-casein 0.08 mM, 30 min) is “significantly inhibited”. In the data set with human MMP-1 (β-casein 0.08 mM, pre-incubation 1:25 molar ratio, pH 6.5, 37 °C, 30 min, SDS-PAGE, 'as early as'), the “earliest time of suppression of MMP-1 activity” value is listed as at most 0.5 h. Besides, in the data set on HUVECs [3], the “wound closure capability of HUVECs” value is recorded as “significantly impaired”. In [1], the “Unorderd (random coil)” value turned out to be 46.4%, the α-Helix came to 6.2%, the β-Strand was 13.6% and the β-Turn is 29.4%. Besides, the “anti-angiogenesis effect (tube formation)” value in the data set with HUVECs [4] was “anti-angiogenesis effects in a dose-dependent manner”. Besides, the HUVECs migration result with HUVECs [5] was “inhibited by pHpG-H7 in a dose-dependent manner”. In [2], the “UV–visible wavelength, zinc–pHpG complex” value amounted to 215 nm and the “UV–visible wavelength, peptide before zinc binding” value is recorded as 212 nm.

Take “EDDHHHHHHHHHGVGGGGGGGGGG [pHpG-H9, Atheris pHpG-1 is equivalent to pHpG-H9, reference compound]”: the “catalytic suppression of MMP-1” value with human MMP-1 is “potent catalytic suppression”. Besides, the “inhibition of MMP-1 activity” value in the data set with human MMP-1 (β-casein 0.08 mM, 30 min) is given as “significantly inhibited”. In addition, in data set [1], the “Unorderd (random coil)” value came out at 47.5%, the α-Helix was 6.3%, the β-Strand is given as 11.7% and the β-Turn came to 30.7%. The venom-induced haemorrhage entry in data set [6] was “alleviation of venom-induced haemorrhage”. For the same sequence, in the data set with SVMP, the SVMP activity result is reported as “inhibition of SVMP activity”. In the data set on metalloproteinase, the metalloproteinase-mediated casein hydrolysis entry is on record as “inhibits”. Further, in data set [2], the “UV–visible wavelength, zinc–pHpG complex” value came out at 218 nm and the “UV–visible wavelength, peptide before zinc binding” value amounted to 210 nm.
